Key:
5-HT1A receptor = molecular target: T1, 5-HT1A receptor (Homo sapiens, UniProt P08908); assay: 5-HT1A receptor binding, [3H]-8-OH-DPAT displacement; details: human recombinant CHO-K1 cells, [3H]-8-OH-DPAT 1.5 nM
T1 construct: expressed in transfected cells; host or cells: CHO-K1
T1 sequence (P08908 1-422): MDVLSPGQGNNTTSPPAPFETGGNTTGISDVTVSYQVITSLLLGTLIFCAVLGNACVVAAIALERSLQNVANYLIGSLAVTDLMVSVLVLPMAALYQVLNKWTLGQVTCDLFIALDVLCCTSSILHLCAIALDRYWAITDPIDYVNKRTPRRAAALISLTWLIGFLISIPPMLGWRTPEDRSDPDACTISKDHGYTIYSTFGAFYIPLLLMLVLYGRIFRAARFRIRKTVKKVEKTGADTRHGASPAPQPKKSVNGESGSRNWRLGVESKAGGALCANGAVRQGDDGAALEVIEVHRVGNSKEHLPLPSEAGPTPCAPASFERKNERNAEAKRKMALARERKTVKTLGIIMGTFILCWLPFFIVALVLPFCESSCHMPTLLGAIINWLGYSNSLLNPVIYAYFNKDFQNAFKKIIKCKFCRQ
Method: (§1) Binding studies can be carried out to determine the affinity of the compounds for 5-HT1A and 5-HT2A receptors
Human recombinant CHO-K1 cells are used. Displacement experiments can be performed by incubating the cells in 50 mM Tris-HCL, pH 7.4, 0.1% ascorbic acid, 0.5 mM EDTA, 10 mM MgSo4 and in the presence of [^3H]-8-OH-DPAT (1.5 nM) at 27° C. for 60 min. Non specific binding was determined in the presence of 10 μM mertergoline.
The test compounds dissolved in DMSO, along with the positive control compound metergoline are tested over 10-log unit concentrations for their ability to compete for [^3H]8-OH-DPAT binding (May J A, et al., J Pharmacol Exp Ther. 306(1):301, 2003. Martin G R and Humphrey P P A Neuropharmacol. 33:261, 1994). […] The radioactivity is counted on a β-counter, and the data are analyzed by a nonlinear, iterative, curve-fitting computer program.
Where presented, IC50 values are determined by a non-linear, least squares regression analysis using Data Analysis Toolboxä (MDL Information Systems, San Leandro, Calif., USA). Where inhibition constants (Ki) are presented, the Ki values are calculated using the equation of Cheng and Prusoff (Cheng, Y., Prusoff, W. H., Biochem. Pharmacol. 22:3099-3108, 1973) using the observed IC50 of the tested compound, the concentration of radioligand employed in the assay, and the historical values for the Ki of the ligand).

5-HT2A receptor = molecular target: T2, 5-HT2A receptor (Homo sapiens, UniProt P28223); assay: 5-HT2A receptor binding, [3H]-Ketanserin displacement; details: human recombinant CHO-K1 cells, [3H]-Ketanserin 0.5 nM
T2 construct: expressed in transfected cells; host or cells: CHO-K1
Method: as §1
Human recombinant CHO-K1 cells can be used. Displacement experiments are performed by incubating the cells in 50 mM Tris-HCL, pH 7.7 in the presence of [^3H]-Ketanserin (0.5 nM) at 25° C. for 60 min. Non specific binding was determined in the presence of 1 μM Mianserin.
The test compounds, along with the positive control compound ketanserin are tested over 10-log unit concentrations for their ability to compete for [^3H]-Ketanserin (Saucier C and Albert P R. J. Neurochem. 68:1998, 1997. Bonhaus D W et al., Br J Pharmacol. 115:622, 1995). The assays are terminated by rapid vacuum filtration over glass fiber filters. The radioactivity is counted on a β-counter, and the data are analyzed by a nonlinear, iterative, curve-fitting computer program. Where presented, IC50 values are determined by a non-linear, least squares regression analysis using Data Analysis Toolboxä (MDL Information Systems, San Leandro, Calif., USA). Where inhibition constants (Ki) are presented, the Ki values are calculated using the equation of Cheng and Prusoff (Cheng, Y., Prusoff, W. H., Biochem. Pharmacol. 22:3099-3108, 1973) using the observed IC50 of the tested compound, the concentration of radioligand employed in the assay, and the historical values for the Ki of the ligand).

T2 sequence (P28223 whole entry): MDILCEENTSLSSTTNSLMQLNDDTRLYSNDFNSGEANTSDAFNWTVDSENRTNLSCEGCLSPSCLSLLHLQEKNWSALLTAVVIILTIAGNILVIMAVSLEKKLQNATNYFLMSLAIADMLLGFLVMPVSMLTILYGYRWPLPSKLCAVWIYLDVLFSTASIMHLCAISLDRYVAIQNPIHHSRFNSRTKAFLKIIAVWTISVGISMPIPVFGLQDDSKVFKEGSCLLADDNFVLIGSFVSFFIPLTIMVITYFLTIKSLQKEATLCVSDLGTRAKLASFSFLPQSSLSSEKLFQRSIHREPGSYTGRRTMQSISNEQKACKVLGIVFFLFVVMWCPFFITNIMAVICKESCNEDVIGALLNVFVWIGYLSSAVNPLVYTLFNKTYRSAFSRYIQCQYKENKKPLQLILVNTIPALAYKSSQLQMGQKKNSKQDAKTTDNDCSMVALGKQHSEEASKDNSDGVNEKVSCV

O=c1[nH]c2ccc(OS(=O)(=O)O)cc2n1CCN1CCN(c2cccc(C(F)(F)F)c2)CC1 [I(b), {2-oxo-3-{2-[4-(3-trifluoromethyl-phenyl)-piperazin-1-yl]-ethyl}-2,3-dihydro-1H-benzimidazol-5-yl}mono sulfuric acid ester]
Ki (5-HT1A receptor): 808 nM
Ki (5-HT2A receptor): 207 nM
